# Data published in the supplement of paper PMC11208160.
# Experiment: recombinant UMI read abundance after kanamycin selection (control-corrected) (log10(CPM+1)); higher = more efficient recombination; extreme values may be limits of the assay; sequences stand for … in AGTGCAGAGAAAATCGGCCAGTTTTCTCTGCCTGCAGTCCGCATGCCGTGGGACCCCTTGGGTTCTAACCTGTTGCCTAGATTTATGCAGCGGACTGCCTTTCTCCCAAAGTGATAAACCGG…AGGTTGGTTTCACT; site = the 11-nt donor
# Protocol: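 Pooled E. coli donor-specificity screen for the IS621 bridge recombinase. Each library member carries a reprogrammed 11-nt donor and a full-length LE bridge RNA expressed in cis from the natural promoter, with a paired donor-binding loop (8-nt LDG + 4-nt RDG) and a target-binding loop fixed to T5. It is co-electroporated with a T5 target plasmid; recombinase is induced with 0.07 mM IPTG and recombinants are selected on kanamycin. UMIs are counted as CPM, averaged over two biological replicates and corrected by the unselected control. Molecule = full bridge RNA written as DNA, built from the T5 scaffold: LDG = donor specificity nt 1-8, RDG = reverse complement of nt 8-11.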
# 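Note: IS621 bridge recombinase in Escherichia coli cells against a fixed T5 target plasmid.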
row,Sequence,recombinant UMI read abundance (log10)
1,AAAACACCATGGACCGGTTTTCCCGGTAATCCGTATTTGCG (site AAAACACCTCG),0.012
2,AAAACCCCATGGACCGGTTTTCCCGGTAATCCGTATTTGGA (site AAAACCCCTTC),0.00874
3,AAAACTACATGGACCGGTTTTCCCGGTAATCCGTATTTGCG (site AAAACTACTCG),1.1
4,AAAAGAACATGGACCGGTTTTCCCGGTAATCCGTATTTGAA (site AAAAGAACTTT),2.03
5,AAAAGACCATGGACCGGTTTTCCCGGTAATCCGTATTTGTA (site AAAAGACCTTA),0
6,AAAAGCACATGGACCGGTTTTCCCGGTAATCCGTATTTGCA (site AAAAGCACTTG),2.36
7,AAACATACATGGACCGGTTTTCCCGGTAATCCGTATTTGTG (site AAACATACTCA),1.38
8,AAACCAGCATGGACCGGTTTTCCCGGTAATCCGTATTTGGC (site AAACCAGCTGC),0
9,AAAGCTCCATGGACCGGTTTTCCCGGTAATCCGTATTTGCG (site AAAGCTCCTCG),0.472
10,AAAGCTTCATGGACCGGTTTTCCCGGTAATCCGTATTTGGG (site AAAGCTTCTCC),0.447
11,AAAGGGGCATGGACCGGTTTTCCCGGTAATCCGTATTTGGG (site AAAGGGGCTCC),0
12,AAAGTAGCATGGACCGGTTTTCCCGGTAATCCGTATTTGGC (site AAAGTAGCTGC),2.01
13,AAAGTCACATGGACCGGTTTTCCCGGTAATCCGTATTTGAC (site AAAGTCACTGT),2.44
14,AAATATTCATGGACCGGTTTTCCCGGTAATCCGTATTTGGG (site AAATATTCTCC),0.372
15,AAATCAGCATGGACCGGTTTTCCCGGTAATCCGTATTTGTT (site AAATCAGCTAA),0.425
16,AAATCGTCATGGACCGGTTTTCCCGGTAATCCGTATTTGCT (site AAATCGTCTAG),2.36
17,AACAGACCATGGACCGGTTTTCCCGGTAATCCGTATTTGCG (site AACAGACCTCG),0
18,AACAGACCATGGACCGGTTTTCCCGGTAATCCGTATTTGTA (site AACAGACCTTA),1.25
19,AACAGCCCATGGACCGGTTTTCCCGGTAATCCGTATTTGCA (site AACAGCCCTTG),0.756
20,AACAGCGCATGGACCGGTTTTCCCGGTAATCCGTATTTGAC (site AACAGCGCTGT),2
21,AACATGCCATGGACCGGTTTTCCCGGTAATCCGTATTTGCT (site AACATGCCTAG),1.43
22,AACCAAACATGGACCGGTTTTCCCGGTAATCCGTATTTGAA (site AACCAAACTTT),1.31

row,Sequence,recombinant UMI read abundance (log10)
1,AACCCAACATGGACCGGTTTTCCCGGTAATCCGTATTTGAC (site AACCCAACTGT),2.68
2,AACCGACCATGGACCGGTTTTCCCGGTAATCCGTATTTGAT (site AACCGACCTAT),0.0205
3,AACCGACCATGGACCGGTTTTCCCGGTAATCCGTATTTGAT (site AACCGCCCTAT),0
4,AACCGACCATGGACCGGTTTTCCCGGTAATCCGTATTTGAT (site AACCGGCCTAT),0.0183
5,AACCGACCATGGACCGGTTTTCCCGGTAATCCGTATTTGAT (site AACCGTCCTAT),0.0119
6,AACCGTGCATGGACCGGTTTTCCCGGTAATCCGTATTTGTG (site AACCGTGCTCA),0.0421
7,AACCTTCCATGGACCGGTTTTCCCGGTAATCCGTATTTGAT (site AACCATCCTAT),0.00673
8,AACCTTCCATGGACCGGTTTTCCCGGTAATCCGTATTTGAT (site AACCCTCCTAT),0.0165
9,AACCTTCCATGGACCGGTTTTCCCGGTAATCCGTATTTGAT (site AACCGTCCTAT),0.0124
10,AACCTTCCATGGACCGGTTTTCCCGGTAATCCGTATTTGAT (site AACCTTCCTAT),0
11,AACGATGCATGGACCGGTTTTCCCGGTAATCCGTATTTGAC (site AACGATGCTGT),2.22
12,AACGCCGCATGGACCGGTTTTCCCGGTAATCCGTATTTGTC (site AACGCCGCTGA),2.24
13,AACGGTCCATGGACCGGTTTTCCCGGTAATCCGTATTTGAT (site AACAGTCCTAT),0.00739
14,AACGGTCCATGGACCGGTTTTCCCGGTAATCCGTATTTGAT (site AACCGTCCTAT),0
15,AACGGTCCATGGACCGGTTTTCCCGGTAATCCGTATTTGAT (site AACGGTCCTAT),0
16,AACGGTCCATGGACCGGTTTTCCCGGTAATCCGTATTTGAT (site AACTGTCCTAT),0.145
17,AACGTAACATGGACCGGTTTTCCCGGTAATCCGTATTTGCT (site AAAGTAACTAG),0.893
18,AACGTAACATGGACCGGTTTTCCCGGTAATCCGTATTTGCT (site AACGTAACTAG),2.51
19,AACGTAACATGGACCGGTTTTCCCGGTAATCCGTATTTGCT (site AAGGTAACTAG),0.524
20,AACGTAACATGGACCGGTTTTCCCGGTAATCCGTATTTGCT (site AATGTAACTAG),1.49
21,AACGTATCATGGACCGGTTTTCCCGGTAATCCGTATTTGCA (site AACGTATCTTG),2.73
22,AACGTATCATGGACCGGTTTTCCCGGTAATCCGTATTTGCA (site ACAGTATCTTG),1.07

row,Sequence,recombinant UMI read abundance (log10)
1,AACGTCTCATGGACCGGTTTTCCCGGTAATCCGTATTTGTC (site AACGTCTCTGA),3.05
2,AACGTGTCATGGACCGGTTTTCCCGGTAATCCGTATTTGTT (site AACGTGTCTAA),2.59
3,AACTAGACATGGACCGGTTTTCCCGGTAATCCGTATTTGAG (site AACTAGACTCT),1.48
4,AACTATACATGGACCGGTTTTCCCGGTAATCCGTATTTGGT (site AACTATACTAC),1.26
5,AACTCATCATGGACCGGTTTTCCCGGTAATCCGTATTTGAA (site AACTCATCTTT),1.19
6,AACTCGCCATGGACCGGTTTTCCCGGTAATCCGTATTTGCT (site AACTCGCCTAG),1.56
7,AACTCGCCATGGACCGGTTTTCCCGGTAATCCGTATTTGTT (site AACTCGCCTAA),0.0268
8,AACTGGTCATGGACCGGTTTTCCCGGTAATCCGTATTTGAC (site AACTGGTCTGT),1.18
9,AAGAATTCATGGACCGGTTTTCCCGGTAATCCGTATTTGTA (site AAGAATTCTTA),2.33
10,AAGACCGCATGGACCGGTTTTCCCGGTAATCCGTATTTGCC (site AAGACCGCTGG),2.73
11,AAGATGCCATGGACCGGTTTTCCCGGTAATCCGTATTTGTG (site AAGATGCCTCA),0.653
12,AAGATTCCATGGACCGGTTTTCCCGGTAATCCGTATTTGTA (site AAGATTCCTTA),1.3
13,AAGCACGCATGGACCGGTTTTCCCGGTAATCCGTATTTGAG (site AAGCACGCTCA),0.629
14,AAGCACGCATGGACCGGTTTTCCCGGTAATCCGTATTTGAG (site AAGCACGCTCC),0.225
15,AAGCACGCATGGACCGGTTTTCCCGGTAATCCGTATTTGAG (site AAGCACGCTCG),0.644
16,AAGCACGCATGGACCGGTTTTCCCGGTAATCCGTATTTGAG (site AAGCACGCTCT),1.49
17,AAGCACGCATGGACCGGTTTTCCCGGTAATCCGTATTTGCG (site AAGCACGCTCA),0.289
18,AAGCACGCATGGACCGGTTTTCCCGGTAATCCGTATTTGCG (site AAGCACGCTCC),0.223
19,AAGCACGCATGGACCGGTTTTCCCGGTAATCCGTATTTGCG (site AAGCACGCTCG),1.44
20,AAGCACGCATGGACCGGTTTTCCCGGTAATCCGTATTTGCG (site AAGCACGCTCT),0.766
21,AAGCACGCATGGACCGGTTTTCCCGGTAATCCGTATTTGGC (site AAGCACGCTAC),0.701
